Data: patent US11840551B2, “Compositions and methods of modulating the immune response by activating alpha protein kinase 1” (Shanghai Yao Yuan Biotechnology Co., Ltd., priority 2017, dated 2023)
“Also recorded” adds a separate entry of the source.

Legend:
ALPK1 [1] = biological target: T1, ALPK1 (Homo sapiens, UniProt Q96QP1); assay: IL8 secretion in HEK293 cells (IL8 ELISA) as indicator of ALPK1 activation; conditions: for IL8 secretion in HEK293 cells: serial dilutions, 4 hours
Method: Phosphatase such as the alkaline phosphatase may be responsible for H1b-ADP hydrolysis. We pre-mixed H1b-ADP with phosphatase inhibitor sodium orthovanadate (Na3VO4) before incubation with FBS. […] We hypothesized that the accumulation of hydrolysis product AMP can inhibit phosphatase activity.
A number of H1b-ADP derivative compounds were made as described herein and tested for biological activity as agonists of ALPK1 in vitro. In these experiments, serial dilutions of the compounds were added to the tissue culture media of HEK293 cells with (FIG. 27B, FIG. 28B, FIG. 29B) or without (FIG. 26, FIG. 27A, FIG. 28A, FIG. 29A) 10% FBS, as indicated in the figures. After 4 hours, the cell supernatant was collected and analyzed for IL8 concentration using IL8 ELISA (BD) as an indicator of ALPK1 activation.

ALPK1 [2] = biological target: T1, ALPK1; assay: In vitro kinase assay of ALPK1-dependent TIFA phosphorylation; assay type: biochemical; conditions: ALPK1 2 nM, TIFA 1.6 uM, 50 uM ATP; compound 2 nM, 0.4 nM, 80 pM, 16 pM, 3 pM
Method: We performed an in vitro kinase assay with H1b-ADP and H1b-ADP-6L along with ALPK1 protein (2 nM), and TIFA protein (1.6 uM) in kinase buffer containing 50 uM ATP. TIFA phosphorylation was analyzed by denaturing gel electrophoresis followed by western blotting using an anti-phosphothreonine antibody. H1b-ADP or H1b-ADP-6L was added at 2 nM, 0.4 nM, 80 pM, 16 pM, and 3 pM.
To test this, we performed an in vitro kinase reaction for ALPK1-dependent TIFA phosphorylation in the presence of either HBP or HIdA purified from E. coli containing inactivated HIdE, or in the presence of HBP and HIdA purified from the same HIdE wild-type E. coli used in the previous experiments. Phosphorylated TIFA (three concentrations, 1%, 0.2% and […]) was detected as described above by denaturing gel electrophoresis followed by Western analysis.

T1 sequence (Q96QP1 whole entry): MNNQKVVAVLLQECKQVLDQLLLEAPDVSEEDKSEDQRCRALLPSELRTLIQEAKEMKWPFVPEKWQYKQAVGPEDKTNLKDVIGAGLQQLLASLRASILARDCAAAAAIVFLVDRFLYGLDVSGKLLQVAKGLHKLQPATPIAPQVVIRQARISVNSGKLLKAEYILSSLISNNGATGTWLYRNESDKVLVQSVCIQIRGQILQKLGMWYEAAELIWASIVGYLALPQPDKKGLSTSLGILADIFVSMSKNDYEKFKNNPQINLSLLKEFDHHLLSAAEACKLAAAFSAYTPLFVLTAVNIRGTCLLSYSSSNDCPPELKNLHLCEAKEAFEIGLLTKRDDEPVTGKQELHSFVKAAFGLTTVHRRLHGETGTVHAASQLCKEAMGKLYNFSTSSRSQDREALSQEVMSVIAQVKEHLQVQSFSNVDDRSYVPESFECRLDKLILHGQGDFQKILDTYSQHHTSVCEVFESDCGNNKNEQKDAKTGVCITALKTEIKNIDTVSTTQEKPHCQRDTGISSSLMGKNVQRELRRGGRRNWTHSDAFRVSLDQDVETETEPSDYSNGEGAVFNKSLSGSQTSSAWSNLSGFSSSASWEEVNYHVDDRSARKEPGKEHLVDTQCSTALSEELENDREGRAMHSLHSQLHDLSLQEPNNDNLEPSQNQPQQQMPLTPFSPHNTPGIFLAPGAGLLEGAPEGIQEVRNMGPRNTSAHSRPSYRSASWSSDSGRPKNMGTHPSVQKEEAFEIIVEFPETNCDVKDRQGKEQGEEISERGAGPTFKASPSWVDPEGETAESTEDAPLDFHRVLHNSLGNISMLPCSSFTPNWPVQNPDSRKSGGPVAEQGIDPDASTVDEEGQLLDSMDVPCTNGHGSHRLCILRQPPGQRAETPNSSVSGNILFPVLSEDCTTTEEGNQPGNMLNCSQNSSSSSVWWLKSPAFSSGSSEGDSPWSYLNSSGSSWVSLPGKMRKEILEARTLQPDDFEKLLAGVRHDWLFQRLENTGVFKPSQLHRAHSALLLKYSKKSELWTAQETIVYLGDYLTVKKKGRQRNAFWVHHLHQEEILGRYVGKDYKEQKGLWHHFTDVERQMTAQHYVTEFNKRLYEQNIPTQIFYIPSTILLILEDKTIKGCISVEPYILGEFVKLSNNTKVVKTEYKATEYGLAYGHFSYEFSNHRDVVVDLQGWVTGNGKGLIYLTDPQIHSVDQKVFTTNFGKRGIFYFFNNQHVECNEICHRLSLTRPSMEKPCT

Structure (SMILES) | IL8 secretion in HEK293 cells (ALPK1 [1]; with 10% FBS) | IL8 secretion in HEK293 cells (ALPK1 [1]; without FBS) | TIFA phosphorylation (ALPK1 [2]) | resistance to FBS (serum) degradation (ALPK1 [1]; comparison of IL8 secretion without FBS and with 10% FBS (FIG. 27A, FIG. 27B))
CC(=O)OC[C@@H](OC(C)=O)[C@H]1O[C@@H](OP(=O)(O)OP(=O)(O)OC[C@@]2(F)O[C@@H](n3cnc4c(N)ncnc43)[C@H](O)[C@@H]2O)[C@@H](OC(C)=O)[C@@H](OC(C)=O)[C@@H]1OC(C)=O [Compound 20, (2S,3S,4S,5R,6R)-2-(((((((2S,3S,4R,5R)-5-(6-amino-9H-purin-9-yl)-2-fluoro-3,4-dihydroxytetrahydrofuran-2-yl)methoxy)(hydroxy)phosphoryl)oxy)(hydroxy)phosphoryl)oxy)-6-((R)-1,2-diacetoxyethyl)tetrahydro-2H-pyran-3,4,5-triyl triacetate] | activate IL8 secretion | activate IL8 secretion | – | –
Nc1ncnc2c1ncn2[C@@H]1O[C@H](COP(=O)(O)OP(=O)(O)O[C@@H]2OC([C@@H](O)CO)[C@@H](O)C(O)C2O)C(O)C1O (stereo in doubt) [Compound 22, Adenosine-5′-(L-glycero-β-D-mannoheptopyranosyl) diphosphate] | increased IL8 secretion | increased IL8 secretion | – | –
CC(=O)OC[C@H](OC(C)=O)[C@H]1O[C@@H](OP(=O)(O)OP(=O)(O)OC[C@H]2O[C@@H](n3cnc4c(N)ncnc43)[C@H](O)[C@@H]2O)[C@@H](OC(C)=O)[C@@H](OC(C)=O)[C@@H]1OC(C)=O [Compound 21, (2S,3S,4S,5R,6R)-2-(((((((2R,3S,4R,5R)-5-(6-amino-9H-purin-9-yl)-3,4-dihydroxytetrahydrofuran-2-yl)methoxy)(hydroxy)phosphoryl)oxy)(hydroxy)phosphoryl)oxy)-6-((S)-1,2-diacetoxyethyl)tetrahydro-2H-pyran-3,4,5-triyl triacetate] | increased IL8 secretion | increased IL8 secretion | – | –
CC(=O)OC[C@H](F)[C@H]1O[C@@H](OP(=O)(O)OP(=O)(O)OC[C@H]2O[C@@H](n3cnc4c(N)ncnc43)[C@H](O)[C@@H]2O)[C@@H](OC(C)=O)[C@@H](OC(C)=O)[C@@H]1OC(C)=O [Compound 3, (2S,3S,4S,5S,6S)-2-((S)-2-acetoxy-1-fluoroethyl)-6-(((((((2R,3S,4R,5R)-5-(6-amino-9H-purin-9-yl)-3,4-dihydroxytetrahydrofuran-2-yl)methoxy)(hydroxy)phosphoryl)oxy)(hydroxy)phosphoryl)oxy)tetrahydro-2H-pyran-3,4,5-triyl triacetate] | activate IL8 secretion | activate IL8 secretion | – | –
Nc1ncnc2c1ncn2[C@@H]1O[C@H](COP(O)(=S)OP(=O)(O)O[C@@H]2OC([C@H](O)CO)[C@@H](O)[C@H](O)C2O)[C@H](O)C1O (stereo partly drawn) [Compound 16] | increased IL8 secretion | increased IL8 secretion | – | –
COC1C(OC)[C@@H](COP(=O)(O)OP(=O)(O)O[C@@H]2OC([C@H](O)CO)[C@@H](O)C(O)C2O)O[C@H]1n1cnc2c(N)ncnc21 (stereo in doubt) [Compound 14, Adenosine-2′3′-dimethoxy-5′-(D-glycero-B-D-mannoheptopyranosyl) diphosphate] | increased IL8 secretion | increased IL8 secretion | – | –
Nc1ncnc2c1ncn2[C@@H]1O[C@H](COP(=O)(O)OP(=O)(O)O[C@@H]2O[C@H]([C@@H](O)CO)[C@@H](O)[C@H](O)[C@@H]2O)[C@@H](O)[C@H]1O [Compound H1b-ADP-6L, L-glycero-D-manno-heptose-1β-ADP] | – | – | activated ALPK1-dependent signaling in a manner similar to H1b-ADP | –
CO[C@@H]1[C@H](OC)[C@@H](COP(=O)(O)OP(=O)(O)O[C@@H]2O[C@H]([C@@H](COC(C)=O)OC(C)=O)[C@@H](OC(C)=O)[C@H](OC(C)=O)[C@@H]2OC(C)=O)O[C@H]1n1cnc2c(N)ncnc21 [Compound 13, (2S,3S,4S,5R,6R)-2-(((((((2R,3R,4R,5R)-5-(6-amino-9H-purin-9-yl)-3,4-dimethoxytetrahydrofuran-2-yl)methoxy)(hydroxy)phosphoryl)oxy)(hydroxy)phosphoryl)oxy)-6-((R)-1,2-diacetoxyethyl)tetrahydro-2H-pyran-3,4,5-triyl triacetate] | increased IL8 secretion | increased IL8 secretion | – | –
CC(=O)OC[C@@H](OC(C)=O)C1O[C@@H](OP(=O)(O)OP(O)(=S)OC[C@H]2O[C@@H](n3cnc4c(N)ncnc43)C(O)C2O)C(OC(C)=O)C(OC(C)=O)[C@@H]1OC(C)=O (stereo partly drawn) [Compound 15, (2S,3S,4S,5R,6R)-2-(((((((2R,3S,4R,5R)-5-(6-amino-9H-purin-9-yl)-3,4-dihydroxytetrahydrofuran-2-yl)methoxy)(hydroxy)phosphorothioyl)oxy)(hydroxy)phosphoryl)oxy)-6-((R)-1,2-diacetoxyethyl)tetrahydro-2H-pyran-3,4,5-triyl triacetate] | activate IL8 secretion | activate IL8 secretion | – | unexpected resistance to serum degradation; also recorded: resistant to FBS degradation
CC(=O)OC[C@@H](OC(C)=O)[C@H]1O[C@@H](OP(=O)(O)OP(=O)(O)OC[C@H]2O[C@@H](n3cnc4c(N)ncnc43)[C@H](O)[C@H]2F)[C@@H](OC(C)=O)[C@@H](OC(C)=O)[C@@H]1OC(C)=O [Compound 17, (2S,3S,4S,5R,6R)-2-(((((((2R,3R,4S,5R)-5-(6-amino-9H-purin-9-yl)-3-fluoro-4-hydroxytetrahydrofuran-2-yl)methoxy)(hydroxy)phosphoryl)oxy)(hydroxy)phosphoryl)oxy)-6-((R)-1,2-diacetoxyethyl)tetrahydro-2H-pyran-3,4,5-triyl triacetate] | increased IL8 secretion | increased IL8 secretion | – | –
CC(=O)OC[C@@H](OC(C)=O)C1O[C@@H](OP(=O)(O)OP(=O)(O)OCC2(F)O[C@@H](n3cnc4c(N)ncnc43)C3OC(C)(C)OC32)C(OC(C)=O)C(OC(C)=O)[C@@H]1OC(C)=O (single isomer, unassigned) [Compound 19] | activate IL8 secretion | activate IL8 secretion | – | –
CC(=O)OC[C@H]1O[C@@H](OP(=O)(O)OP(=O)(O)OC[C@H]2O[C@@H](n3cnc4c(N)ncnc43)[C@H](O)[C@@H]2O)[C@@H](OC(C)=O)[C@@H](OC(C)=O)[C@@H]1OC(C)=O [Compound 5, (2R,3R,4S,5S,6S)-2-(acetoxymethyl)-6-(((((((2R,3S,4R,5R)-5-(6-amino-9H-purin-9-yl)-3,4-dihydroxytetrahydrofuran-2-yl)methoxy)(hydroxy)phosphoryl)oxy)(hydroxy)phosphoryl)oxy)tetrahydro-2H-pyran-3,4,5-triyl triacetate] | increased IL8 secretion | increased IL8 secretion | – | –
